Assay results from patent publication US20240270821A1, “GIP/GLP1/GCG TRI-RECEPTOR AGONISTS AND USES THEREOF” (priority 2023, published 2024).
Read-outs that look alike come from different tables or passages of the source. Starred links: 1 amine or outer side, 2 acyl side, 3 side chain; linkers in the order of their positions; H or OH if unused. Non-standard residues stand in square brackets, D forms with d. Groups on a side chain read outwards from the residue. *: point of attachment. C20 diacid = O=C(O)CCCCCCCCCCCCCCCCCCC(=O)*; C18 diacid = O=C(O)CCCCCCCCCCCCCCCCC(=O)*; γGlu = O=C(O)[C@H](CCC(=O)[*:2])N[*:1]; αMeL = CC(C)C[C@](C)(N)C(=O)O; AEEA = NCCOCCOCC(=O)O; Aib = CC(C)(N)C(=O)O

Assays:
Format in all cases: cell-based
human GcgR = human GcgR (Homo sapiens, UniProt P47871); assay: Functional cAMP activity in the presence of 1% HSA
Chain of human GcgR (P47871 26-477): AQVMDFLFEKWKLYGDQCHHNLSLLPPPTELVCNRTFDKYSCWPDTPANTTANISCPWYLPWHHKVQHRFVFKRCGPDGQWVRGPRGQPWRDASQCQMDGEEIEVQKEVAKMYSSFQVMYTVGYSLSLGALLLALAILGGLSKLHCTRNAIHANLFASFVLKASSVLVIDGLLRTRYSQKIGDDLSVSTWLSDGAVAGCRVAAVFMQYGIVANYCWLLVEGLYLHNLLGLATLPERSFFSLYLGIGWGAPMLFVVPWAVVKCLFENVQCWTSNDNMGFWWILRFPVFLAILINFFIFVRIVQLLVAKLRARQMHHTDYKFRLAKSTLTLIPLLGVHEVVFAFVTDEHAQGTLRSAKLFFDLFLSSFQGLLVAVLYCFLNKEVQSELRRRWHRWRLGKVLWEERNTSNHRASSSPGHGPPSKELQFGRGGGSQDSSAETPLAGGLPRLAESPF

hGLP-1R [1] = target: T1, hGLP-1R (Homo sapiens, UniProt P43220); assay: Functional cAMP activity in the presence of 1% HSA
T1 sequence (P43220 24-463): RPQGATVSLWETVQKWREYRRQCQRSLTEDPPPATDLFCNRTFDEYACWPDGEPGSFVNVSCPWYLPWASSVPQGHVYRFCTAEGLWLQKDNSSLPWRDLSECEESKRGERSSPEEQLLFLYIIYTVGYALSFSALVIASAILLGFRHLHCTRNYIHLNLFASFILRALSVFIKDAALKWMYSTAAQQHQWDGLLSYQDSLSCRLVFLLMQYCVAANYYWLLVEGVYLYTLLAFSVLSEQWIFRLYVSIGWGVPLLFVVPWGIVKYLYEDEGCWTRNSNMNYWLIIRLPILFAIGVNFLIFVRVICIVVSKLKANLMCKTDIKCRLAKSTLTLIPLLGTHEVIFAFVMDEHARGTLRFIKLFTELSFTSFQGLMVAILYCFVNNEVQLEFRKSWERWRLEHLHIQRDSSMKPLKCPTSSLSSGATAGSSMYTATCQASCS

human GLP1-R = human GLP1-R (Homo sapiens, UniProt P43220); assay: GLP1-R internalization assay in HEK293 cells; conditions: for Internalization % TOP: normalized to maximum concentration of GLP-1 (100%)
Chain of human GLP1-R (P43220 24-463): as above

hGLP-1R [2] = target: T1, hGLP-1R; assay: Functional cAMP activation in the presence of 0.1% casein (no HSA);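 on Relative cAMP EC50, hGIPR: intracellular cAMP rise after 30 min at 37 °C read by HTRF against a standard curve, scaled between buffer alone (0%) and top control ligand concentration (100%), four-parameter fit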;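 on Relative cAMP EC50, hGLP-1R: intracellular cAMP rise after 30 min at 37 °C read by HTRF, normalized between buffer only (0%) and maximal control ligand (100%), four-parameter variable-slope fit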
hGIPR [3] = target: T2, hGIPR (Homo sapiens, UniProt P48546); assay: as above;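 further: intracellular cAMP rise after 30 min at 37 °C read by HTRF against a standard curve, scaled between buffer alone (0%) and top control ligand concentration (100%), four-parameter fit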
T2 sequence (P48546 22-466): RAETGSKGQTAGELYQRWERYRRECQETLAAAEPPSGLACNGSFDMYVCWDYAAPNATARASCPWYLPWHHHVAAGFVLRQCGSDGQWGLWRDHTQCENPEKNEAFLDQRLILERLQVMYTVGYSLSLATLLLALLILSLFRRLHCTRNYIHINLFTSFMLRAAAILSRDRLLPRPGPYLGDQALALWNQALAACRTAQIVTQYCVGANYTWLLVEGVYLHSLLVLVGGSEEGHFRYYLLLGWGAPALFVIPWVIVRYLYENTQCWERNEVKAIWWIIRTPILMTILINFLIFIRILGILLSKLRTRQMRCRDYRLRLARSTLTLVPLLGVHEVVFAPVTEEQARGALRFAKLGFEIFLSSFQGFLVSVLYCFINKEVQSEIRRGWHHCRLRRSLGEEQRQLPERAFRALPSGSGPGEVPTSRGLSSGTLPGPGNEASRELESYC

hGIPR [4] = target: T2, hGIPR; assay: Functional cAMP activity in the presence of 1% HSA
hGcgR = hGcgR (Homo sapiens, UniProt P47871); assay: Functional cAMP activation in the presence of 0.1% casein (no HSA);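 further: intracellular cAMP rise after 30 min at 37 °C, read by HTRF against a cAMP standard curve, scaled from buffer only (0%) to maximal control ligand response (100%)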
Chain of hGcgR (P47871 26-477): as the sequence (P47871 26-477) above

[5] = read-out: cAMP Rel EC50, hGLP-1R
[6] = HEK293 cells expressing SNAP-GLP-1R, read-out: GLP1R Internalization EC50
[7] = in the presence of 0.1% casein (no HSA), geometric mean, read-out: Relative cAMP EC50, hGLP-1R
[8] = in the presence of 0.1% casein (no HSA), geometric mean, read-out: Relative cAMP EC50, hGIPR
[9] = in the presence of 0.1% casein (no HSA), geometric mean, read-out: Relative cAMP EC50, hGcgR

Compound	EC50 (human GcgR; read-out: cAMP Rel EC50, hGcgR) [nM]	EC50 (hGLP-1R [1]; [5]) [nM]	EC50 (human GLP1-R; [6]) [nM]	Internalization % TOP (human GLP1-R) [%]	EC50 (hGLP-1R [2]; [7]) [nM]	EC50 (hGIPR [3]; [8]) [nM]	EC50 (hGIPR [4]; read-out: cAMP Rel EC50, hGIPR) [nM]	EC50 (hGcgR; [9]) [nM]	EC50 (human GcgR) [nM]	EC50 (hGLP-1R [1]) [nM]	EC50 (human GLP1-R) [nM]	EC50 (hGLP-1R [2]) [nM]	EC50 (hGIPR [3]) [nM]	EC50 (hGIPR [4]) [nM]	EC50 (hGcgR) [nM]
CC[C@H](C)[C@H](NC(=O)[C@H](Cc1ccccc1)NC(=O)[C@H](C)NC(=O)C(C)(C)NC(=O)[C@H](CCC(N)=O)NC(=O)[C@H](C)NC(=O)[C@H](CCCCNC(=O)CC[C@H](NC(=O)CC[C@H](NC(=O)CC[C@H](NC(=O)CCCCCCCCCCCCCCCCC(=O)O)C(=O)O)C(=O)O)C(=O)O)NC(=O)[C@H](CCCCN)NC(=O)[C@H](CC(=O)O)NC(=O)[C@H](CC(C)C)NC(=O)[C@](C)(CC(C)C)NC(=O)[C@H](CCCN)NC(=O)[C@H](CO)NC(=O)[C@H](Cc1ccccc1)NC(=O)[C@H](CC(=O)O)NC(=O)[C@H](CO)NC(=O)[C@@H](NC(=O)[C@H](Cc1ccccc1)NC(=O)[C@@H](NC(=O)CNC(=O)[C@H](CCC(N)=O)NC(=O)C(C)(C)NC(=O)[C@@H](N)Cc1ccc(O)cc1)[C@@H](C)O)[C@@H](C)O)C(=O)N[C@@H](CCC(=O)O)C(=O)N[C@@H](Cc1ccc(O)cc1)C(=O)N[C@@H](CC(C)C)C(=O)N[C@@H](CC(C)C)C(=O)N[C@@H](CCC(=O)O)C(=O)N[C@H](C)C(=O)NCC(=O)N1CCC[C@H]1C(=O)N[C@@H](CO)C(=O)N[C@@H](CO)C(=O)NCC(=O)N[C@@H](C)C(=O)N1CCC[C@H]1C(=O)N1CCC[C@H]1C(=O)N1CCC[C@H]1C(=O)N[C@@H](CO)C(=O)NCC(=O)N[C@H](C(N)=O)[C@@H](C)O [Example 205]	397	234	49.4	67.7	2.71	0.16	24.4	8.98	–	–	–	–	–	–	–
CC[C@H](C)[C@H](NC(=O)[C@H](Cc1ccccc1)NC(=O)[C@H](C)NC(=O)[C@](C)(Cc1ccncc1)NC(=O)[C@H](CCC(N)=O)NC(=O)[C@H](C)NC(=O)[C@H](CCCCNC(=O)COCCOCCNC(=O)CC[C@H](NC(=O)CCCCCCCCCCCCCCCCC(=O)O)C(=O)O)NC(=O)[C@H](CCCCN)NC(=O)[C@H](CC(=O)O)NC(=O)[C@H](CC(C)C)NC(=O)[C@](C)(CC(C)C)NC(=O)[C@H](CCCNC(=N)N)NC(=O)[C@H](CO)NC(=O)[C@H](Cc1ccccc1)NC(=O)[C@H](CC(=O)O)NC(=O)[C@H](CO)NC(=O)[C@@H](NC(=O)[C@H](Cc1ccccc1)NC(=O)[C@@H](NC(=O)CNC(=O)[C@H](CCC(N)=O)NC(=O)C(C)(C)NC(=O)[C@@H](N)Cc1ccc(O)cc1)[C@@H](C)O)[C@@H](C)O)C(=O)N[C@@H](CCC(=O)O)C(=O)N[C@@H](Cc1ccc(O)cc1)C(=O)N[C@@H](CC(C)C)C(=O)N[C@H](C(=O)N[C@@H](CCC(=O)O)C(=O)NC(C)(C)C(=O)NCC(=O)N[C@@H](CCC(=O)O)C(=O)N[C@@H](CO)C(=O)N[C@@H](CO)C(=O)NCC(=O)N[C@@H](C)C(=O)N1CCC[C@H]1C(=O)N1CCC[C@H]1C(=O)N1CCC[C@H]1C(=O)N[C@@H](CO)C(=O)NCC(=O)N[C@@H](CO)C(N)=O)[C@@H](C)CC [Example 230]	–	–	–	31.2	–	–	–	–	388	199	34.4	0.937	0.0909	21.6	1.61
H-Y[Aib]QGTFTSDFSK[αMeL]LDKK([AEEA-AEEA-γGlu-C20 diacid])AQ[Aib]AFIEYLLEGGPSSGAPPPGEG-NH2 [Example 17]	2040	543	66.2	72.2	2.96	0.317	91.7	8.33	–	–	–	–	–	–	–
H-Y[Aib]QGTFTSDFSK[αMeL]LDKK([AEEA-γGlu-C18 diacid])AQ[Aib]AFIEYLIEGGPSSGAPPPSEG-NH2 [Example 49]	1310	151	37.2	53.2	0.706	0.324	44.9	5.54	–	–	–	–	–	–	–
H-Y[Aib]QGTFTSDFSK[αMeL]LDKK([AEEA-γGlu-C18 diacid])AQ[Aib]AFIEYLIE[Aib]GESSGAPPPSGE-NH2 [Example 217]	1570	130	27.6	58.2	0.667	0.0897	15	5.11	–	–	–	–	–	–	–
H-Y[Aib]QGTFTSDFSK[αMeL]LDKK([AEEA-γGlu-C18 diacid])AQ[Aib]AFIEYLLEGGPSSGAPPPSGS-NH2 [Example 141]	877	562	95.3	64.1	1.96	0.21	62.1	1.77	–	–	–	–	–	–	–
H-Y[Aib]QGTFTSDFSK[αMeL]LDKK([AEEA-γGlu-C18 diacid])AQ[Aib]AFIEYLLE[Aib]GPSSGAPPPSEG-NH2 [Example 57]	113	42.7	76.6	73.1	3.06	0.098	3.78	4.37	–	–	–	–	–	–	–
H-Y[Aib]QGTFTSDFSK[αMeL]LDKK([AEEA-γGlu-C18 diacid])AQ[Aib]AFIEYLLE[Aib]GPSSGEPPPSEG-NH2 [Example 46]	393	601	41	58.1	4.04	0.0947	19.6	1.53	–	–	–	–	–	–	–
H-Y[Aib]QGTFTSDFSK[αMeL]LDKK([AEEA-γGlu-C18 diacid])AQ[Aib]QFIEYLLEGGPSSGAPPPSEG-NH2 [Example 51]	856	1210	89.2	55.7	5.8	0.421	98.4	5.15	–	–	–	–	–	–	–
H-Y[Aib]QGTFTSDFSK[αMeL]LDKK([AEEA-γGlu-C20 diacid])AQQAFIEYLLA[Aib]GPSSGEPPPSEG-NH2 [Example 19]	–	–	–	72.6	–	–	–	–	1010	1310	52.4	3.96	0.228	66.2	2.35
H-Y[Aib]QGTFTSDFSK[αMeL]LDKK([AEEA-γGlu-C20 diacid])AQ[Aib]AFIEWLLEGGPSSGAPPPSEG-NH2 [Example 37]	1870	514	51.6	68.3	1.66	0.207	56.4	6.83	–	–	–	–	–	–	–
H-Y[Aib]QGTFTSDFSK[αMeL]LDKK([AEEA-γGlu-C20 diacid])AQ[Aib]AFIEYLLAGGPSSGAPPPGGE-NH2 [Example 15]	1980	276	79	74.9	1.77	0.201	36.3	11.1	–	–	–	–	–	–	–
H-Y[Aib]QGTFTSDFSK[αMeL]LDKK([AEEA-γGlu-C20 diacid])AQ[Aib]AFIEYLLAGGPSSGAPPPGGS-NH2 [Example 16]	1660	281	37.8	74.6	1.54	0.217	35.9	8.84	–	–	–	–	–	–	–
H-Y[Aib]QGTFTSDFSK[αMeL]LDKK([AEEA-γGlu-C20 diacid])AQ[Aib]AFIEYLLAGGPSSGAPPPSEG-NH2 [Example 10]	1640	375	79.2	71.9	1.85	0.226	43	7.62	–	–	–	–	–	–	–
